Experiments:
Experiment in all cases: viability relative to DMSO control (fraction); higher = less drug effect (more viable cells)
Details in all cases: 48 h
[1] = system: primary MCL patient cells (S041)
In short: (§1)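 The cells were primary mononuclear tumour cells, either fresh or cryopreserved, isolated by Ficoll from blood or bone marrow or derived from processed lymph node. Each well of a 384-well plate received 4 × 10^4 cells onto compounds pre-plated at five concentrations, with one well per concentration. The medium was RPMI-1640 with penicillin/streptomycin, L-glutamine and human serum, and plates stood at 37 °C and 5% CO2 for 48 h. Viability is reported as CellTiter-Glo luminescence relative to the median of 16 inner DMSO wells.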

[2] = system: primary AML patient cells (S056)
In short: as §1

[3] = system: primary AML patient cells (S085)
In short: as §1

[4] = system: primary AML patient cells (S079)
In short: as §1

[5] = system: primary AML patient cells (S006)
In short: as §1

[6] = system: primary FL patient cells (S087)
In short: as §1

[7] = system: primary AML patient cells (S060)
In short: as §1

[8] = system: primary AML patient cells (S071)
In short: as §1

[9] = system: primary AML patient cells (S017)
In short: as §1

[10] = system: primary MCL patient cells (S063)
In short: as §1

[11] = system: primary BL patient cells (S005)
In short: as §1

[12] = system: primary DLBCL patient cells (S082)
In short: as §1

[13] = system: primary ALL patient cells (S088)
In short: as §1

[14] = system: primary AML patient cells (S072)
In short: as §1

[15] = system: primary MCL patient cells (S053)
In short: as §1

[16] = system: primary CLL patient cells (S031)
In short: as §1

[17] = system: primary AML patient cells (S009)
In short: as §1

[18] = system: primary B-PLL patient cells (S016)
In short: as §1

[19] = system: primary CLL patient cells (S043)
In short: as §1

[20] = system: primary AML patient cells (S012)
In short: as §1

N#Cc1ccnc(N2C(=O)CC[C@H]2C(=O)N(c2cncc(F)c2)[C@H](C(=O)NC2CC(F)(F)C2)c2ccccc2Cl)c1 [AG-120]
viability ([1]; 0.024 µM): 0.99
viability ([1]; 0.12 µM): 1.01
viability ([1]; 0.6 µM): 0.928
viability ([1]; 3 µM): 1
viability ([1]; 15 µM): 0.886
viability ([2]; 0.024 µM): 0.866
viability ([2]; 0.12 µM): 0.833
viability ([2]; 0.6 µM): 0.72
viability ([2]; 3 µM): 0.74
viability ([2]; 15 µM): 0.577
viability ([3]; 0.024 µM): 1.07
viability ([3]; 0.12 µM): 1
viability ([3]; 0.6 µM): 0.959
viability ([3]; 3 µM): 1.03
viability ([3]; 15 µM): 0.886
viability ([4]; 0.024 µM): 0.978
viability ([4]; 0.12 µM): 0.983
viability ([4]; 0.6 µM): 0.879
viability ([4]; 3 µM): 0.959
viability ([4]; 15 µM): 0.844
viability ([5]; 0.024 µM): 1.07
viability ([5]; 0.12 µM): 1.13
viability ([5]; 0.6 µM): 0.986
viability ([5]; 3 µM): 1.08
viability ([5]; 15 µM): 0.901
viability ([6]; 0.024 µM): 0.946
viability ([6]; 0.12 µM): 0.984
viability ([6]; 0.6 µM): 0.911
viability ([6]; 3 µM): 1.01
viability ([6]; 15 µM): 0.892
viability ([7]; 0.024 µM): 1.05
viability ([7]; 0.12 µM): 1.1
viability ([7]; 0.6 µM): 0.937
viability ([7]; 3 µM): 1.16
viability ([7]; 15 µM): 0.938
viability ([8]; 0.024 µM): 1.03
viability ([8]; 0.12 µM): 1.05
viability ([8]; 0.6 µM): 0.922
viability ([8]; 3 µM): 0.919
viability ([8]; 15 µM): 0.751
viability ([9]; 0.024 µM): 1.04
viability ([9]; 0.12 µM): 0.988
viability ([9]; 0.6 µM): 1.16
viability ([9]; 3 µM): 1.02
viability ([9]; 15 µM): 0.908
viability ([10]; 0.024 µM): 1.16
viability ([10]; 0.12 µM): 1.1
viability ([10]; 0.6 µM): 0.929
viability ([10]; 3 µM): 1.15
viability ([10]; 15 µM): 0.789
viability ([11]; 0.024 µM): 0.99
viability ([11]; 0.12 µM): 1.02
viability ([11]; 0.6 µM): 1.43
viability ([11]; 3 µM): 1.01
viability ([11]; 15 µM): 1.31
viability ([12]; 0.024 µM): 1.03
viability ([12]; 0.12 µM): 1.06
viability ([12]; 0.6 µM): 0.895
viability ([12]; 3 µM): 1.05
viability ([12]; 15 µM): 0.935
viability ([13]; 0.024 µM): 0.727
viability ([13]; 0.12 µM): 0.745
viability ([13]; 0.6 µM): 0.533
viability ([13]; 3 µM): 0.7
viability ([13]; 15 µM): 0.499
viability ([14]; 0.024 µM): 0.983
viability ([14]; 0.12 µM): 1.1
viability ([14]; 0.6 µM): 0.87
viability ([14]; 3 µM): 0.919
viability ([14]; 15 µM): 0.799
viability ([15]; 0.024 µM): 0.945
viability ([15]; 0.12 µM): 0.911
viability ([15]; 0.6 µM): 0.593
viability ([15]; 3 µM): 0.887
viability ([15]; 15 µM): 0.641
viability ([16]; 0.024 µM): 0.982
viability ([16]; 0.12 µM): 0.912
viability ([16]; 0.6 µM): 0.773
viability ([16]; 3 µM): 0.807
viability ([16]; 15 µM): 0.715
viability ([17]; 0.024 µM): 0.974
viability ([17]; 0.12 µM): 0.96
viability ([17]; 0.6 µM): 1.04
viability ([17]; 3 µM): 0.943
viability ([17]; 15 µM): 0.915
viability ([18]; 0.024 µM): 1.16
viability ([18]; 0.12 µM): 1.18
viability ([18]; 0.6 µM): 1
viability ([18]; 3 µM): 1.12
viability ([18]; 15 µM): 0.86
viability ([19]; 0.024 µM): 0.819
viability ([19]; 0.12 µM): 0.925
viability ([19]; 0.6 µM): 0.925
viability ([19]; 3 µM): 0.91
viability ([19]; 15 µM): 0.837
viability ([20]; 0.024 µM): 1.03
viability ([20]; 0.12 µM): 1.06
viability ([20]; 0.6 µM): 1.04
viability ([20]; 3 µM): 0.987
viability ([20]; 15 µM): 0.985
